The source of these data is ChEMBL document CHEMBL6153172, “MALT1 Inhibitors and Degraders: Strategies for NF-κB-Driven Malignancies” (J Med Chem, 2025).

Where a SMILES comes first, the peptide text is derived from it. The star is where a group is joined. Cbz = O=C(OCc1ccccc1)*; CH2F = FC* Bounds are passed on as bounds.

In experiment [1] the test system is OCI-Ly3. The experiment in a line: Growth inhibition of human OCI-Ly3 cells.
Experiment [2] addresses T1, Mucosa-associated lymphoid tissue lymphoma translocation protein 1 (Homo sapiens, UniProt Q9UDY8).
T1 sequence (Q9UDY8 whole entry): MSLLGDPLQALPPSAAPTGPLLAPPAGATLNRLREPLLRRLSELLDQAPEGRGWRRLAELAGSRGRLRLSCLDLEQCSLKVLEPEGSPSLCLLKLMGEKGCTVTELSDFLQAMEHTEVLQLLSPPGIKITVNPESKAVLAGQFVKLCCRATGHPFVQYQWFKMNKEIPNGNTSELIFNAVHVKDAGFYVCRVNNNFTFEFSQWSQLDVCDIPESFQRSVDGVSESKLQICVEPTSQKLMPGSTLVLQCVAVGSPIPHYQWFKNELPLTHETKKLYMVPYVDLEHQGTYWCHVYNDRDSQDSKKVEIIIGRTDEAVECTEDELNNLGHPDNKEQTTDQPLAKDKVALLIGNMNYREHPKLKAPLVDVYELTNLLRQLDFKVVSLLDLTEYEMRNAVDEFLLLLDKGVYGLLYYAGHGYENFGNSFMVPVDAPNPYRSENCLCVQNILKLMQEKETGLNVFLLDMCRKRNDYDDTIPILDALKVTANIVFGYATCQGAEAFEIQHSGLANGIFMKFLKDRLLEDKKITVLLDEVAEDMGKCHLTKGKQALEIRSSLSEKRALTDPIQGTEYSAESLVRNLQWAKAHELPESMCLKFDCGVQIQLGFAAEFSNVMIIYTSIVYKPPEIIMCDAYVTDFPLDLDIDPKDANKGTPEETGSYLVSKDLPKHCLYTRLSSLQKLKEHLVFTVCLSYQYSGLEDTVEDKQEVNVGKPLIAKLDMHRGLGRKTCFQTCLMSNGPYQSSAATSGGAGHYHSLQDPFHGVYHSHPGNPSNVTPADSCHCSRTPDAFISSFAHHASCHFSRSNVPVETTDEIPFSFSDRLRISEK
Description: Inhibition of MALT1 (unknown origin)

In experiment [3] the target is T1, Mucosa-associated lymphoid tissue lymphoma translocation protein 1. The experiment in a line: Inhibition MALT1 (unknown origin) using Ac-LRSR-AMC as substrate by fluorescence based analysis.
Experiment [4] has the same target. Description: biochemical.
Description: Inhibition of C-terminal human full length wild type MALT1 (329 to 824 residues) extracted from baculovirus infected Sf21 cells using Ac-Leu-Arg-Ser-Arg-Rh110-dPro incubated for 60 mins by fluorescence based analysis
Experiment [5] has the same target. Description: biochemical. The source holds these as a separate data set.
Description: Inhibition of human full length His-tagged MALT1 (1 to 824 residues) infected in baculovirus infected Insect cells using Ac-LRSR-AMC as substrate incubated for 1 hr by HTRF assay
The target is the same in experiment [6]. Description: Inhibition of N-terminal human recombinant MALT1 expressed in Jurkat cells assessed as suppression of IL-2 secretion.
Experiment [7] shares this target. The experiment in a line: biochemical. This is another data set of the same source.
Description: Inhibition of N-terminal recombinant human MALT1 (329 to 824 residues) extracted from baculovirus infected Sf21 cells using c-LRSR~Rhodamine110-DP as substrate by fluorescence based assay
The target is the same in experiment [8]. This is another data set of the same source.
Description: Binding affinity to full length C-terminal His-tagged wild-type MALT1 catalytic domain (329 to 566 residues) (unknown origin) extracted from Escherichia coli BL21 (DE3) assessed as inhibition constant
Experiment [9] has as its system OCI-Ly3. The experiment in a line: Antiproliferative activity against human OCI-Ly3 cells. The experiment is classed as functional, cell-based.
Experiment [10] deals with T1, Mucosa-associated lymphoid tissue lymphoma translocation protein 1. The experiment in a line: Inhibition of GST-tagged human recombinant MALT1 extracted from Escherichia coli using Ac-LRSR-AMC as substrate by fluorescence based analysis.

Turning to `CC(C)[C@H](NC(=O)OCc1ccccc1)C(=O)N[C@@H](CCCNC(=N)N)C(=O)N1CCC[C@H]1C(=O)N[C@@H](CCCNC(=N)N)C(=O)CF`, it took 2.5 µM to inhibit growth in the experiment on OCI-Ly3 [1] by half (GI50).
In the case of `CC(C)[C@H](NC(=O)c1ccc(Br)cc1)C(=O)N1CCC[C@H]1C(=O)N[C@@H](CCCNC(=N)N)C(=O)CF`, in the experiment on OCI-Ly3 [1], it took 0.087 µM to inhibit growth by half (GI50). This GI50 lies about 29-fold lower than the previous one.
In turn, `COC(C)c1c(NC(=O)Nc2cnc(-n3nccn3)c(C(F)(F)F)c2)cnc2sc(C)nc12` (stereo not drawn) displayed an IC50 in experiment [2] of less than 0.05 µM.
In turn, `CO[C@@H](c1c(NC(=O)Nc2cnc(-n3nccn3)c(C(F)(F)F)c2)cnc(C)c1C#N)C1CC1` displayed an IC50 in experiment [2] of 0.02 µM.
`CO[C@@H](C)c1c(NC(=O)Nc2cncc(C(F)(F)F)c2)cnc2cc(Cl)nn12`: in [3], the IC50 amounted to 0.004 µM.
In [4], `CO[C@H](C)c1c(NC(=O)Nc2cnc(C(=O)N3CCCC3)c(Cl)c2)cnc2cc(Cl)nn12` showed a half-inhibitory concentration (IC50) of 0.014 µM.
With `CO[C@@H](C)c1c(NC(=O)Nc2cnc3c(c2)COc2ccnn2-3)cnc2cc(Cl)nn12`, the IC50 in experiment [5] amounted to 0.034 µM.
For the compound `C[C@]1(C(F)(F)F)CN(C(=O)Nc2cnc(-n3nccn3)c(Cl)c2)c2cnc3cc(Cl)nn3c21`, in experiment [5], the IC50 was less than 0.01 µM.
The same measure, in the same setting: with `CC1(C(F)(F)F)CN(C(=O)Nc2ccc3nonc3c2)c2cnc3cc(Cl)nn3c21` (stereo not drawn) the figure was 0.034 µM.
In the case of `O=C(Nc1cncc(C(F)(F)F)c1)Nc1cnn2cc(Cl)nc2c1C1CC1`, the IC50 in [2] is less than 0.1 µM.
`CCc1ccc2cnn(C)c2c1NS(=O)(=O)c1ccc(N2C[C@](O)(C(F)(F)F)CC2=O)nc1`: the IC50 in [6] worked out at 0.053 µM; in experiment [7] it was 0.016 µM.
In experiment [5], `O=C1NC2C=CC(n3ncc(C(=O)Nc4cnc(-n5nccn5)c(Cl)c4)c3C(F)(F)F)=C3C=CC=C1C32` (stereo not drawn) registered an IC50 of 0.015 µM.
Take `CC(C)C[C@H](NC(=O)OCc1ccccc1)C(=O)N[C@H](C(=O)N1CCC[C@H]1C(=O)N[C@@H](CCCNC(=N)N)C(=O)CF)C(C)C` (Cbz-LVPR-CH2F): in the experiment on OCI-Ly3 [1], halving of growth (GI50) required 0.768 µM.
`CC(C)[C@H](NC(=O)OCc1ccccc1)C(=O)N1CCC[C@H]1C(=O)N[C@@H](CCCNC(=N)N)C(=O)CF` (Cbz-Val-Pro-Arg-CH2F) returned a Ki in experiment [8] of 0.03 µM. This compound also registered a concentration for 50% growth inhibition (GI50) with OCI-Ly3 [1] of 5.62 µM.
In turn, `CC1(C)CCC2=C(O1)c1ccccc1C(=O)C2=O` [LAPACHONE] registered an IC50 in the experiment on OCI-Ly3 [9] of 4 µM.
In the case of `CN(C)CCCN1c2ccccc2Sc2ccccc21` [PROMAZINE], the IC50 in [10] came out at 3.79 µM.

The term GI50 denotes the concentration that inhibits growth by half. A low value points to more potent growth inhibition. As a reminder, the IC50 is the concentration that inhibits the measured activity by half. The term Ki denotes the equilibrium dissociation constant of an inhibitor or competing ligand from its target.
